In US11932658B2 (BRISTOL-MYERS SQUIBB COMPANY, priority 2016, dated 2024):

Target: T1, PAR4 (Homo sapiens, UniProt Q96RI0)
T1 construct: expressed in transfected cells; host or cells: HEK293 PAR4 Clone 1.2A (BMS Arctic ID 383940)
T1 sequence (Q96RI0 18-385): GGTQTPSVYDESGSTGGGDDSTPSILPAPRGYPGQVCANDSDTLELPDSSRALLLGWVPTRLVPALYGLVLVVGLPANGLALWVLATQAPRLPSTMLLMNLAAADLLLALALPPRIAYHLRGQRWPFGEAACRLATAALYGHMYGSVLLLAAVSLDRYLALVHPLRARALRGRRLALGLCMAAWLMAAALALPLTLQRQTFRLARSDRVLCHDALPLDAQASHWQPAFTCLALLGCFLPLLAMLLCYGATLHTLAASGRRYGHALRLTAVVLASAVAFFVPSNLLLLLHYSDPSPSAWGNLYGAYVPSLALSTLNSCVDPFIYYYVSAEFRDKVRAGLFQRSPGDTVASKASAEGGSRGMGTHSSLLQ
Experiment: PAR4 FLIPR assay (antagonism of agonist peptide-induced calcium mobilization)
Type: cell-based
In short: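 Antagonism was taken as block of calcium mobilization evoked by the agonist peptide H-Ala-Phe(4-F)-Pro-Gly-Trp-Leu-Val-Lys-Asn-[…]-NH2, added after 30 min room-temperature compound preincubation in dye-loaded PAR4-transfected HEK293 cells (endogenous PAR1). Fluorescence was read on FDSS, with compound addition alone used as the agonist counter-screen; values come from 11-point concentration-response curves.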

For COC(=O)NC[C@@H]1Cc2c(ccc3nc(-c4cc(C)cc5nc(OC)cnc45)sc23)O1 [Example 226, (S)-methyl ((2-(2-methoxy-7-methylquinoxalin-5-yl)-7,8-dihydrobenzofuro[5,4-d]thiazol-7-yl)methy 1)carbamate], the IC50 was 1.4 nM.

In the case of COc1cnc2c(-c3nc4c(Cl)cc5c(c4s3)OC[C@H](COC(=O)Nc3cnc(Cl)nc3)O5)cc(C)cc2n1 [Example 58, (R)-(4-chloro-2-(2-methoxy-7-methylquinoxalin-5-yl)-7,8-dihydro-[1,4]dioxino[2′,3′:3,4]benzo[1,2-d]thiazol-7-yl)methyl (2-chloropyrimidin-5-yl)carbamate], the IC50 is reported as 8.8 nM.

With COc1cnc2c(-c3nc4cc(F)c5c(c4s3)C[C@@H](CNC(=O)Oc3ccc(C)cc3)O5)cc(C)cc2n1 [Example 213, (S)-p-tolyl ((5-fluoro-2-(2-methoxy-7-methylquinoxalin-5-yl)-7,8-dihydrobenzofuro[5,4-d]thiazol-7-yl)methyl)carbamate] the IC50 was 3.6 nM.

With COc1cnc2c(-c3nc4cc(F)c5c(c4s3)[C@@H](C)[C@H](CO)O5)cc(C)cc2n1 (single isomer, unassigned) [Example 201] the IC50 was 7.8 nM.

COc1cnc2c(-c3nc4cc(F)c5c(c4s3)C[C@H](COC(=O)Nc3cnc(C)nc3)O5)cc(F)cc2c1 [Example 280, (R)-(5-fluoro-2-(6-fluoro-3-methoxyquinolin-8-yl)-7,8-dihydrobenzofuro[5,4-d]thiazol-7-yl)methyl (2-methylpyrimidin-5-yl)carbamate] gave an IC50 of 2.4 nM.

COc1cnc2c(-c3nc4cc(F)c5c(c4s3)C[C@@H](CNC(C)=O)O5)cc(C)cc2n1 [Example 209, (S)-N-((5-fluoro-2-(2-methoxy-7-methylquinoxalin-5-yl)-7,8-dihydrobenzofuro[5,4-d]thiazol-7-yl)methyl)acetamide] gave an IC50 of 26 nM.

With COc1cnc2c(-c3nc4c(Cl)cc5c(c4s3)OC[C@H](COC(=O)Nc3cnc(C)c(C)c3)O5)cc(C)cc2n1 [Example 60, (R)-(4-chloro-2-(2-methoxy-7-methylquinoxalin-5-yl)-7,8-dihydro-[1,4]dioxino[2′,3′:3,4]benzo[1,2-d]thiazol-7-yl)methyl (5,6-dimethylpyridin-3-yl) carbamate] the IC50 was 6.9 nM.

COc1cnc2c(-c3nc4cc(F)c5c(c4s3)C[C@@H](CNC(=O)OCCF)O5)cc(C)cc2n1 [Example 247, (S)-2-fluoroethyl ((5-fluoro-2-(2-methoxy-7-methylquinoxalin-5-yl)-7,8-dihydrobenzofuro[5,4-d]thiazol-7-yl)methyl)carbamate] gave an IC50 of 0.7 nM.

With COc1cnc2c(-c3nc4c(C)cc5c(c4s3)OCC(COC(=O)Nc3ccc(NC(C)=O)nc3)O5)cc(C)cc2n1 (stereo not drawn) [Example 140, (2-(2-methoxy-7-methylquinoxalin-5-yl)-4-methyl-7,8-dihydro-[1,4]dioxino[2′,3′:3,4]benzo[1,2-d]thiazol-7-yl)methyl (6-acetamidopyridin-3-yl)carbamate] the IC50 was 230 nM.

COc1cnc2c(-c3nc4c(C)cc5c(c4s3)OCC(COC(=O)Nc3ccc(C)nc3)O5)cc(Cl)cc2n1 (stereo not drawn) [Example 97, (2-(7-chloro-2-methoxyquinoxalin-5-yl)-4-methyl-7,8-dihydro-[1,4]dioxino[2′,3′:3,4]benzo[1,2-d]thiazol-7-yl)methyl (6-methylpyridin-3-yl)carbamate] was tested, and the IC50 was 64 nM.

In the case of COc1cnc2c(-c3nc4c(F)cc5c(c4s3)OC[C@H](COC(=O)Nc3ccnc(C)c3)O5)cc(CO)cc2n1 [Example 85, (R)-(4-fluoro-2-(7-(hydroxymethyl)-2-methoxyquinoxalin-5-yl)-7,8-dihydro-[1,4]dioxino [2′,3′:3,4]benzo[1,2-d]thiazol-7-yl)methyl (2-methylpyridin-4-yl)carbamate], the IC50 is reported as 15 nM.

Compound COc1cnc2c(-c3nc4ccc5c(c4s3)OC[C@H](COC(=O)Nc3ccc(C)nc3)O5)cc(C)cc2n1 [Example 102, (R)-(2-(2-methoxy-7-methylquinoxalin-5-yl)-7,8-dihydro-[1,4]dioxino[2′,3′:3,4]benzo[1,2-d]thiazol-7-yl)methyl (6-methylpyridin-3-yl)carbamate] has an IC50 of 2.3 nM.

In the case of COc1cnc2c(-c3nc4c(C)cc5c(c4s3)OC[C@H](COC(=O)Nc3cnc4c(c3)ncn4C)O5)cc(C)cc2n1 [Example 54, (R)-(2-(2-methoxy-7-methylquinoxalin-5-yl)-4-methyl-7,8-dihydro-[1,4]dioxino[2′,3′:3,4]benzo[1,2-d]thiazol-7-yl)methyl (3-methyl-3H-imidazo[4,5-b]pyridin-6-yl)carbamate], the IC50 is reported as 1.6 nM.

Compound COc1cnc2c(-c3nc4c(C)cc5c(c4s3)OCC(COC(=O)Nc3cncc(C)c3)O5)cc(C)cc2n1 (stereo not drawn) [Example 124, (2-(2-methoxy-7-methylquinoxalin-5-yl)-4-methyl-7,8-dihydro-[1,4]dioxino[2′,3′:3,4]benzo[1,2-d]thiazol-7-yl)methyl (5-methylpyridin-3-yl)carbamate] has an IC50 of 3.2 nM.

Work on COc1cnc2c(-c3cc4c5c(cc(Cl)c4o3)O[C@@H](COC(=O)Nc3cccnc3)CO5)cc(C)cc2n1 [Example 10, (R)-(6-chloro-8-(2-methoxy-7-methylquinoxalin-5-yl)-2,3-dihydro-[1,4]dioxino[2,3-e]benzofuran-3-yl)methyl pyridin-3-ylcarbamate] yielded an IC50 of 8.5 nM.

In the case of COc1cnc2c(-c3nc4c(C)cc5c(c4s3)OCC(COC(=O)Nc3ccc(N(C)C)nc3)O5)cc(C)cc2n1 (stereo not drawn) [Example 116, (2-(2-methoxy-7-methylquinoxalin-5-yl)-4-methyl-7,8-dihydro-[1,4]dioxino[2′,3′:3,4]benzo[1,2-d]thiazol-7-yl)methyl (6-(dimethylamino)pyridin-3-yl)carbamate], the IC50 is reported as 3.4 nM.

For COc1cnc2c(-c3nc4ccc5c(c4s3)C[C@@H]([C@@H](C)O)O5)cc(C)cc2n1 (single isomer, unassigned) [Example 243], the IC50 was 9.7 nM.

COc1cnc2c(-c3nc4c(Cl)cc5c(c4s3)OC[C@H](COC(=O)Nc3ccc4scnc4c3)O5)cc(C)cc2n1 [Example 39, (R)-(4-chloro-2-(2-methoxy-7-methylquinoxalin-5-yl)-7,8-dihydro-[1,4]dioxino[2′,3′:3,4]benzo[1,2-d]thiazol-7-yl)methyl benzo[d]thiazol-5-ylcarbamate] was tested, and the IC50 was 18 nM.

In the case of CCOc1ccc(NC(=O)OCC2COc3c(cc(C)c4nc(-c5cc(C)cc6nc(OC)cnc56)sc34)O2)cn1 (stereo not drawn) [Example 133, (2-(2-methoxy-7-methylquinoxalin-5-yl)-4-methyl-7,8-dihydro-[1,4]dioxino[2′,3′:3,4]benzo[1,2-d]thiazol-7-yl)methyl (6-ethoxypyridin-3-yl)carbamate], the IC50 is reported as 150 nM.

For COc1cnc2c(-c3nc4cc(F)c5c(c4s3)C[C@H](COC(=O)Nc3ccc(C)nc3)O5)cc(C)cc2n1 [Example 159, (R)-(5-fluoro-2-(2-methoxy-7-methylquinoxalin-5-yl)-7,8-dihydrobenzofuro[5,4-d]thiazol-7-yl)methyl (6-methylpyridin-3-yl)carbamate], the IC50 was 0.6 nM.

COc1cnc2c(-c3nc4cc(F)c5c(c4s3)C[C@H](CNC(C)=O)O5)cc(C)cc2n1 [Example 219, (R)-N-((5-fluoro-2-(2-methoxy-7-methylquinoxalin-5-yl)-7,8-dihydrobenzofuro[5,4-d]thiazol-7-yl)methyl)acetamide] was tested, and the IC50 was 180 nM.
